Experiment [1] concerns the target T1, OX1 (Homo sapiens, UniProt O43613).
T1 construct: expressed in transfected cells; host or cells: CHO (CHO-OX1, kept under selection antibiotic)
T1 sequence (O43613 1-425): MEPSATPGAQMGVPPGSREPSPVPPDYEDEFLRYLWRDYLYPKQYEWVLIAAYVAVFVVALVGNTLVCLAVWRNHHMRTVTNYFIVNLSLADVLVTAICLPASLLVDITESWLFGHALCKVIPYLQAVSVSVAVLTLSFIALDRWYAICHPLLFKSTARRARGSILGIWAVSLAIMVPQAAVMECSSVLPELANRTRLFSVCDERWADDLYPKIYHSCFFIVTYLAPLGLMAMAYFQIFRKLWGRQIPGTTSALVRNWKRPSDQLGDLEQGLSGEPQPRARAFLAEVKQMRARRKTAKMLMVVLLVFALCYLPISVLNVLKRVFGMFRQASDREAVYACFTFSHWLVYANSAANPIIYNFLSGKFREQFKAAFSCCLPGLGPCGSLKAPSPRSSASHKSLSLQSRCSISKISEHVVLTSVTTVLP
The experiment is described as follows: Orexin receptor cell-based functional assay, [Ca2+]i by FLIPR, CHO-OX1 cells. The note with it: CHO-OX1 cells, [Ca2+]i by FLIPR, antagonist dose-range 0.1 nM-10 μM, EC90 of OXA; read-out: OX1. In a few lines: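 CHO cells expressing human OX1 or OX2 loaded with calcium dye plus 2.5 mM probenecid at 37° C (calcium4, 30 min, or calcium6, 2 h), then exposed to compounds (0.1 nM-10 μM) for 30 min. Intracellular Ca2+ measured on FLIPR; antagonist format.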

Experiment [2] has as its target T2, OX2 (Homo sapiens, UniProt O43614).
T2 construct: expressed in transfected cells; host or cells: CHO (CHO-OX2, kept under selection antibiotic)
T2 sequence (O43614 1-444): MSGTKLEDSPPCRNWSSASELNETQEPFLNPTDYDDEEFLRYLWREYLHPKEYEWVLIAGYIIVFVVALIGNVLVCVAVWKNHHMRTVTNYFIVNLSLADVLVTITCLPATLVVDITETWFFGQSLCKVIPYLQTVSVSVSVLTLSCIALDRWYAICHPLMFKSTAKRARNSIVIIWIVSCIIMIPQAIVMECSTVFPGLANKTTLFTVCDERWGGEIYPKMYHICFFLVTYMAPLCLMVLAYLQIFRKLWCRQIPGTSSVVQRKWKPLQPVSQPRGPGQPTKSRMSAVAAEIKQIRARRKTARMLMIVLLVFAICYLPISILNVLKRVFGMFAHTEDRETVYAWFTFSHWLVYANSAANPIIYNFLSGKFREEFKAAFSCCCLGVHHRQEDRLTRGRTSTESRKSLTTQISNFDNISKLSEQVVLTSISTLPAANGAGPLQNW
The experiment is described as follows: Orexin receptor cell-based functional assay, [Ca2+]i by FLIPR, CHO-OX2 cells. The conditions noted are these: [Ca2+]i by FLIPR, antagonist dose-range 0.1 nM-10 μM, EC90 of OXA, read-out: OX2. The procedure: Measurement of [Ca^2+]i using a FLIPR: CHO—OX1 or CHO—OX2 cells are seeded into black-walled clear-base 384-well plates (Costar) at a density of 20,000 cells per well in F12-K medium supplemented with 10% FBS and selection antibiotic (500 ug/ml G418 or 15 ug/ml Blasticidin) and cultured overnight. The cells are incubated with equal volume of calcium4 loading buffer (Molecular Devices, Inc.) containing 2.5 mM probenecid at 37° C. for 30 min, followed by putative OX1 or OX2 receptor antagonists (dose-range 0.1 nM-10 μM) for another 30 min.
The cells are incubated with equal volume of calcium6 loading buffer (Molecular Devices, Inc.) containing 2.5 mM probenecid at 37° C. for 2 h, followed by test compounds (dose-range 0.1 nM-10 μM) for another 30 min.

Our source for the IC50 values is patent US9440982B2 (Eolas Therapeutics, Inc., priority 2012, dated 2016).

On to `Cc1c(F)ccc(-n2nccn2)c1C(=O)N1CCC[C@@H](C)[C@H]1CNc1ncc(C(F)(F)F)cn1` [Example A385, (3-fluoro-2-methyl-6-(2H-1,2,3-triazol-2-yl)phenyl)((2S,3R)-3-methyl-2-(((5-(trifluoromethyl)pyrimidin-2-yl)amino)methyl)piperidin-1-yl)methanone], for which the IC50 in experiment [1] is 24 nM; in experiment [2] it was > 5000 nM.

`Cc1cc(-n2nccn2)c(C(=O)N2CCC[C@@H](C)[C@H]2CNc2ncc(C(F)(F)F)cn2)cc1F` [Example A361, (5-fluoro-4-methyl-2-(2H-1,2,3-triazol-2-yl)phenyl)((2S,3R)-3-methyl-2-(((5-(trifluoromethyl)pyrimidin-2-yl)amino)methyl)piperidin-1-yl)methanone]: the figures for the IC50 in experiment [1] and in experiment [2] were 4 nM and > 5000 nM, respectively.

With `Cc1ccc(-c2cnn(C)c2)c(C(=O)N2CC3CCCC3C2CNc2nc3cc(Cl)ccc3o2)c1` (centres unmarked) [Example A70, (1-(((5-Chlorobenzo[d]oxazol-2-yl)amino)methyl)hexahydrocyclopenta[c]pyrrol-2(1H)-yl)(5-methyl-2-(1-methyl-1H-pyrazol-4-yl)phenyl)methanone], the IC50 in experiment [1] turned out to be 2500 nM; in experiment [2], 7800 nM.

Regarding `Cc1ccc(C(=O)N2CCC[C@@H](C)[C@H]2CNc2ccc(C(F)(F)F)cn2)c(-c2ncccn2)c1` [Example A305, ((2S,3R)-3-Methyl-2-(((5-(trifluoromethyl)pyridin-2-yl)amino)methyl)piperidin-1-yl)(4-methyl-2-(pyrimidin-2-yl)phenyl)methanone], the IC50 was 9 nM in experiment [1] and > 5000 nM in experiment [2].

In the case of `Cc1ccc(-c2ncccn2)c(C(=O)N2CCC[C@@H](C)[C@H]2CNc2ncc(C(F)(F)F)cn2)c1F` [Example A321], the figures for the IC50 in experiment [1] and in experiment [2] were 8 nM and > 5000 nM, respectively.

For `Cc1cccc(-n2nccn2)c1C(=O)N1CCC[C@@H](C)[C@H]1CNc1ccc(C(F)(F)F)cn1` [Example A265, ((2S,3R)-3-Methyl-2-(((5-(trifluoromethyl)pyridin-2-yl)amino)methyl)piperidin-1-yl)(2-methyl-6-(2H-1,2,3-triazol-2-yl)phenyl)methanone], the IC50 is 8 nM in experiment [1] and > 5000 nM in experiment [2].

For the compound `C[C@@H]1CCCN(C(=O)c2ccc(F)cc2-c2ncccn2)[C@@H]1CNc1ccc(C(F)(F)F)cn1` [Example A234, (4-Fluoro-2-(pyrimidin-2-yl)phenyl)((2S,3R)-3-methyl-2-(((5-(trifluoromethyl)pyridin-2-yl)amino)methyl)piperidin-1-yl)methanone], the IC50 in experiment [1] is 11 nM; in experiment [2], > 5000 nM.

Consider `Cc1ccc(-n2cnc(C(F)(F)F)n2)c(C(=O)N2CC3CCCC3C2CNc2nc3cc(Cl)ccc3o2)c1` (centres unmarked) [Example A72, (1-(((5-Chlorobenzo[d]oxazol-2-yl)amino)methyl)hexahydrocyclopenta[c]pyrrol-2(1H)-yl)(5-methyl-2-(3-(trifluoromethyl)-1H-1,2,4-triazol-1-yl)phenyl)methanone], for which the IC50 was 2400 nM in experiment [1] and 3900 nM in experiment [2].

Regarding `Cc1ccc(F)c(C(=O)N2CCC[C@@H](C)[C@H]2CNc2ncc(C(F)(F)F)cn2)c1-n1nccn1` [Example A353, (6-fluoro-3-methyl-2-(2H-1,2,3-triazol-2-yl)phenyl)((2S,3R)-3-methyl-2-(((5-(trifluoromethyl)pyrimidin-2-yl)amino)methyl)piperidin-1-yl)methanone], the IC50 in experiment [1] was 4 nM; in experiment [2], > 5000 nM.

Regarding `C[C@@H]1CCCN(C(=O)c2c(-c3ncccn3)ccc(F)c2F)[C@@H]1CNc1ccc(C(F)(F)F)cn1` [Example A388, (2,3-Difluoro-6-(pyrimidin-2-yl)phenyl)((2S,3R)-3-methyl-2-(((5-(trifluoromethyl)pyridin-2-yl)amino)methyl)piperidin-1-yl)methanone], the figures for the IC50 in experiment [1] and in experiment [2] were 4 nM and > 5000 nM, respectively.
